{
  "source": "patent US8981111B2",
  "about": "(priority 2008, dated 2015)",
  "experiment": "log P (HPLC/MS data of the preparation examples)",
  "conditions": "for log p: linear gradient 10% to 95% acetonitrile",
  "key": {"[1]": {"conditions": "method [b]: LC-MS at pH 2.7, 0.1% formic acid in water / acetonitrile"}, "[2]": {"conditions": "LC-MS, method [b]: pH 2.7 with 0.1% formic acid in water and acetonitrile"}},
  "data": [
    {"molecule": "CC(C)COC(=O)Nc1cccc(CON=C(c2ccccc2)c2nncn2C)n1", "note": "[Example 159]", "values": [
      {"measurement": "log p", "setting": "[1]", "result": "2.88^[b]"}
    ]},
    {"molecule": "CCCCCOC(=O)Nc1ccnc(CON=C(c2ncc(C(F)(F)F)cc2Cl)c2ncnn2C)n1", "note": "[Example 475]", "values": [
      {"measurement": "log p", "setting": "HPLC (LC-MS) method [b]: pH 2.7, 0.1% formic acid in water and acetonitrile, EEC directive 79/831 Annex V.A8", "result": "3.8^[b]"}
    ]},
    {"molecule": "Cn1ccnc1C(=NOCc1cccc(N)n1)c1cccc(F)c1", "note": "[Example 233]", "values": [
      {"measurement": "log p", "setting": "[1]", "result": "0.54^[b]"}
    ]},
    {"molecule": "CCCCCOC(=O)Nc1nc(CON=C(c2ccccc2)c2ocnc2C)cs1", "note": "[Example 321, pentyl{4-[({[(4-methyl-1,3-oxazol-5-yl)(phenyl)methylene]amino}oxy)methyl]-1,3-thiazol-2-yl}carbamate]", "values": [
      {"measurement": "chromatographic logP", "setting": "reversed phase HPLC column, pH 2.7", "result": 4.09}
    ]},
    {"molecule": "CC(C)CC(=O)Nc1ccnc(CON=C(c2cccs2)c2ncnn2C)n1", "note": "[Example 410]", "values": [
      {"measurement": "log p", "setting": "[2]", "result": "2.56^[b]"}
    ]},
    {"molecule": "Cn1cncc1C(=NOCc1nccc(N(C(=O)C2CC2)C(=O)C2CC2)n1)c1ccccc1", "note": "[Example 104]", "values": [
      {"measurement": "log p", "setting": "[2]", "result": "1.75^[b]"}
    ]},
    {"molecule": "Cn1ccnc1C(=NOCc1cccc(NC(=O)CCc2ccc(Cl)s2)n1)c1cccc(F)c1", "note": "[Example 335]", "values": [
      {"measurement": "log p", "setting": "[2]", "result": "2.77^[b]"}
    ]}
  ]
}
